Laboratory results reported in patent US10117864B2, “Substituted N-bicyclo-2-aryl-quinolin-4-carboxamides and use thereof” (BAYER PHARMA AKTIENGESELLSCHAFT, priority 2015, dated 2018).

Biological target: human FP receptor (Homo sapiens (Human), UniProt P43088)
Assay: In vitro test of inhibition of human FP receptor activity (PGF2α-induced calcium flux in FP-expressing CHEM1 cells)
Format: cell-based
Conditions: PGF2α-induced (3 nM) calcium flux, some as mean values from multiple independent determinations
Text: • CRTH2 chemoattractant receptor-homologous molecule expressed on T helper type 2 cells • DMEM Dulbecco's modified Eagle's medium • DMSO dimethyl sulfoxide • DP PGD2 receptor • EC50 half-maximum effective concentration • Em emission • EP PGE2 receptor • Ex excitation • from Company (source) • FCS fetal calf serum • FP PGF2α receptor • HEPES 2-[4-(2-hydroxyethyl)piperazin-1-yl]ethanesulfonic acid • IC50 half-maximum inhibitory concentration • IP PGI2 receptor • MES 2-(N-morpholino)ethanesulfonic acid • Pen/Strep penicillin/streptomycin • PGD2 prostaglandin D2 • PGE2 prostaglandin E2 • PGF2α prostaglandin F2α • PGI2 prostaglandin I2 • TC tissue culture • TP thromboxane A2 receptor • Tris tris(hydroxymethyl)aminomethane • v/v volume to volume ratio (of a solution) • w/w weight to weight ratio (of a solution) B-1. In Vitro Test of Inhibition of Human FP Receptor Activity
For the characterization of test substances in respect of FP antagonism, PGF2α-induced calcium flux in FP-expressing CHEM1 cells (Millipore, HTS093C) was used.
Prior to the measurement, the medium is replaced by 30 μl of Fluo-8 AM loading buffer [calcium-free Tyrode (130 mM NaCl, 5 mM KCl, 20 mM HEPES, 1 mM MgCl2, 4.8 mM NaHCO3, pH 7.4), 2 mM CaCl2, 1× SmartBlock (from CANDOR Bioscience GmbH), 4.5 mM Probenecid, 5 μM Fluo-8 AM, 0.016% Pluronic®, 0.04% Brilliant black] and incubated at 37° C./5% CO2 for 30 minutes. […] 10 μl of the prediluted substance solution are added to the Fluo-8-laden cells and incubated at 37° C./5% CO2 for 10 minutes. The FP receptor is activated by adding 20 μl of 3 nM (final concentration) PGF2α in calcium-free Tyrode/2 mM CaCl2/0.04% Brilliant black, and the calcium flux is determined by measuring the fluorescence at ex. 470 nm/[…].
Table 1 below lists the IC50 values from this assay for individual working examples of the invention (some as mean values from multiple independent individual determinations): […]

Chain of human FP receptor (P43088 whole entry): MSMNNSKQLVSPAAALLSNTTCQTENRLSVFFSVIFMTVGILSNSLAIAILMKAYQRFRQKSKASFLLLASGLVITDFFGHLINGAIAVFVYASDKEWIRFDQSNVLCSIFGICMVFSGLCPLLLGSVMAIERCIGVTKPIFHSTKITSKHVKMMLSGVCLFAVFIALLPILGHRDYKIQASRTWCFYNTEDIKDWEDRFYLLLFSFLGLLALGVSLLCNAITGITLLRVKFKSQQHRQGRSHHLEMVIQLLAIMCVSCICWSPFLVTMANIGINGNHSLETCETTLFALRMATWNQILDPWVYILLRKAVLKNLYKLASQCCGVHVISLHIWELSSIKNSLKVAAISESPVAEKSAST

Compound	IC50
Cc1c(-c2ccc(Cl)s2)nc2ccc(Br)cc2c1C(=O)NC12CCC(C(=O)O)(CC1)CC2 [Example 54, 4-({[6-Bromo-2-(5-chloro-2-thienyl)-3-methylquinolin-4-yl]carbonyl}amino)bicyclo[2.2.2]octane-1-carboxylic acid]	0.24 µM
Cc1c(-c2ccccc2)nc2ccc(I)cc2c1C(=O)NC12CCC(C(=O)O)(CC1)CC2 [Example 14, 4-{[(6-Iodo-3-methyl-2-phenylquinolin-4-yl)carbonyl]amino}bicyclo[2.2.2]octane-1-carboxylic acid]	0.033 µM
C#Cc1ccc2nc(-c3ccccc3)c(C)c(C(=O)NC34CCC(C(=O)O)(CC3)CC4)c2c1 [Example 56, 4-{[(6-Ethynyl-3-methyl-2-phenylquinolin-4-yl)carbonyl]amino}bicyclo[2.2.2]octane-1-carboxylic acid]	0.148 µM
Cc1c(-c2ccccc2)nc2ccc(Br)cc2c1C(=O)NC12CCC(C(N)=O)(CC1)CC2 [Example 36, 6-Bromo-N-(4-carbamoylbicyclo[2.2.2]oct-1-yl)-3-methyl-2-phenylquinoline-4-carboxamide]	0.553 µM
Cc1c(-c2cccc(F)c2)nc2ccc(Br)cc2c1C(=O)NC12CCC(C(=O)O)(CC1)CC2 [Example 7, 4-({[6-Bromo-2-(3-fluorophenyl)-3-methylquinolin-4-yl]carbonyl}amino)bicyclo[2.2.2]octane-1-carboxylic acid]	0.181 µM
Cc1c(-c2ccccc2)nc2c(Cl)cc(Cl)cc2c1C(=O)NC12CCC(C(=O)O)(CC1)CC2 [Example 22, 4-{[(6,8-Dichloro-3-methyl-2-phenylquinolin-4-yl)carbonyl]amino}bicyclo[2.2.2]octane-1-carboxylic acid]	0.677 µM
Cc1c(-c2ccccc2)nc2ccc(I)cc2c1C(=O)NC12C3C4C1C1C2C3C41C(=O)O (stereo not drawn) [Example 44, 4-{[(6-Iodo-3-methyl-2-phenylquinolin-4-yl)carbonyl]amino}cubane-1-carboxylic acid]	0.073 µM
Cc1c(-c2ccccc2Cl)nc2ccc(Br)cc2c1C(=O)NC12CCC(C(=O)O)(CC1)CC2 [Example 10, 4-({[6-Bromo-2-(2-chlorophenyl)-3-methylquinolin-4-yl]carbonyl}amino)bicyclo[2.2.2]octane-1-carboxylic acid]	0.128 µM
Cc1c(-c2ccccc2F)nc2ccc(Br)cc2c1C(=O)NC12CCC(C(=O)O)(CC1)CC2 [Example 6, 4-({[6-Bromo-2-(2-fluorophenyl)-3-methylquinolin-4-yl]carbonyl}amino)bicyclo[2.2.2]octane-1-carboxylic acid]	0.24 µM
Cc1c(-c2ccccc2)nc2ccc(Cl)cc2c1C(=O)NC12CCC(C(=O)O)(CC1)CC2 [Example 2, 4-{[(6-Chloro-3-methyl-2-phenylquinolin-4-yl)carbonyl]amino}bicyclo[2.2.2]octane-1-carboxylic acid]	0.259 µM
Cc1c(-c2ccccc2)nc2ccc(Br)cc2c1C(=O)NC12C3C4C1C1C2C3C41C(=O)O (stereo not drawn) [Example 43, 4-{[(6-Bromo-3-methyl-2-phenylquinolin-4-yl)carbonyl]amino}cubane-1-carboxylic acid]	0.198 µM
Cc1c(-c2ccccc2)nc2ccc(Br)cc2c1C(=O)NC12CCC(C(=O)O)(CC1)C(F)(F)C2 [Example 58, 4-{[(6-Bromo-3-methyl-2-phenylquinolin-4-yl)carbonyl]amino}-2,2-difluorobicyclo[2.2.2]octane-1-carboxylic acid]	0.668 µM
Cc1c(-c2cc(Br)cs2)nc2ccc(Br)cc2c1C(=O)NC12CCC(C(=O)O)(CC1)CC2 [Example 52, 4-({[6-Bromo-2-(4-bromo-2-thienyl)-3-methylquinolin-4-yl]carbonyl}amino)bicyclo[2.2.2]octane-1-carboxylic acid]	0.058 µM
N#Cc1c(-c2ccccc2)nc2ccc(Br)cc2c1C(=O)NC12CCC(C(=O)O)(CC1)CC2 [Example 66, 4-{[(6-Bromo-3-cyano-2-phenylquinolin-4-yl)carbonyl]amino}bicyclo[2.2.2]octane-1-carboxylic acid]	0.762 µM
O=C(NC12CCCC(C(=O)O)(CC1)CC2)c1c(C2CC2)c(-c2ccccc2)nc2ccc(I)cc12 [Example 42, 5-{[(3-Cyclopropyl-6-iodo-2-phenylquinolin-4-yl)carbonyl]amino}bicyclo[3.2.2]nonane-1-carboxylic acid]	0.033 µM
Cc1c(-c2ccccc2)nc2ccc(OC(F)(F)F)cc2c1C(=O)NC12CCC(C(=O)O)(CC1)CC2 [Example 19, 4-({[3-Methyl-2-phenyl-6-(trifluoromethoxy)quinolin-4-yl]carbonyl}amino)bicyclo[2.2.2]octane-1-carboxylic acid]	0.917 µM
Cc1c(-c2ccccc2)nc2ccc(Br)cc2c1C(=O)NC12CCC(C(=O)O)(CC1=O)CC2=O [Example 63, 4-{[(6-Bromo-3-methyl-2-phenylquinolin-4-yl)carbonyl]amino}-3,5-dioxobicyclo [2.2.2]octane-1-carboxylic acid]	0.082 µM
O=C(NC12CCCC(C(=O)O)(CC1)CC2)c1c(Cl)c(-c2ccccc2)nc2ccc(Br)cc12 [Example 40, 5-{[(6-Bromo-3-chloro-2-phenylquinolin-4-yl)carbonyl]amino}bicyclo[3.2.2]nonane-1-carboxylic acid]	0.195 µM
Cc1c(-c2ccccc2)nc2ccc(Br)cc2c1C(=O)NC12CC(C(=O)O)(C1)C2 [Example 37, 3-{[(6-Bromo-3-methyl-2-phenylquinolin-4-yl)carbonyl]amino}bicyclo[1.1.1]pentane-1-carboxylic acid]	0.723 µM
Cc1c(-c2ccccc2)nc2ccc(C3CCC3)cc2c1C(=O)NC12CCC(C(=O)O)(CC1)CC2 [Example 16, 4-{[(6-Cyclobutyl-3-methyl-2-phenylquinolin-4-yl)carbonyl]amino}bicyclo [2.2.2]octane-1-carboxylic acid]	0.589 µM
O=C(NC12CCCC(C(=O)O)(CC1)CC2)c1c(Cl)c(-c2ccccc2)nc2ccc(I)cc12 [Example 41, 5-{[(3-Chloro-6-iodo-2-phenylquinolin-4-yl)carbonyl]amino}bicyclo[3.2.2]nonane-1-carboxylic acid]	0.048 µM
O=C(NC12CCC(C(=O)O)(CC1)CC2)c1c(F)c(-c2ccccc2)nc2ccc(Br)cc12 [Example 12, 4-{[(6-Bromo-3-fluoro-2-phenylquinolin-4-yl)carbonyl]amino}bicyclo[2.2.2]octane-1-carboxylic acid]	0.139 µM
COc1c(-c2ccccc2)nc2ccc(Br)cc2c1C(=O)NC12CCC(C(=O)O)(CC1)CC2 [Example 13, 4-{[(6-Bromo-3-methoxy-2-phenylquinolin-4-yl)carbonyl]amino}bicyclo [2.2.2]octane-1-carboxylic acid]	0.153 µM
Cc1c(-c2ccccc2)nc2cc(Cl)c(Cl)cc2c1C(=O)NC12CCC(C(=O)O)(CC1)CC2 [Example 3, 4-{[(6,7-Dichloro-3-methyl-2-phenylquinolin-4-yl)carbonyl]amino}bicyclo[2.2.2]octane-1-carboxylic acid]	0.142 µM
O=C(NC12CCC(C(=O)O)(CC1)CC2)c1c(O)c(-c2ccccc2)nc2ccc(Br)cc12 [Example 35, 4-{[(6-Bromo-3-hydroxy-2-phenylquinolin-4-yl)carbonyl]amino}bicyclo[2.2.2]octane-1-carboxylic acid]	0.43 µM
Cc1ccccc1-c1nc2ccc(Br)cc2c(C(=O)NC23CCC(C(=O)O)(CC2)CC3)c1C [Example 24, 4-({[6-Bromo-3-methyl-2-(2-methylphenyl)quinolin-4-yl]carbonyl}amino)bicyclo[2.2.2]octane-1-carboxylic acid]	0.129 µM
Cc1c(-c2cccc(Cl)c2)nc2ccc(Br)cc2c1C(=O)NC12CCC(C(=O)O)(CC1)CC2 [Example 11, 4-({[6-Bromo-2-(3-chlorophenyl)-3-methylquinolin-4-yl]carbonyl}amino)bicyclo[2.2.2]octane-1-carboxylic acid]	0.129 µM
CSc1c(-c2ccccc2)nc2ccc(Br)cc2c1C(=O)NC12CCC(C(=O)O)(CC1)CC2 [Example 27, 4-({[6-Bromo-3-(methylsulfanyl)-2-phenylquinolin-4-yl]carbonyl}amino)bicyclo[2.2.2]octane-1-carboxylic acid]	0.074 µM
O=C(NC12CCC(C(=O)O)(CC1)CC2)c1c(Cl)c(-c2ccccc2)nc2ccc(I)cc12 [Example 32, 4-{[(3-Chloro-6-iodo-2-phenylquinolin-4-yl)carbonyl]amino}bicyclo[2.2.2]octane-1-carboxylic acid]	0.022 µM
Cc1c(-c2ccccc2)nc2ccc(Br)cc2c1C(=O)NC12CCC(C(=O)O)(CC1)C(=O)C2 [Example 57, 4-{[(6-Bromo-3-methyl-2-phenylquinolin-4-yl)carbonyl]amino}-2-oxobicyclo[2.2.2]octane-1-carboxylic acid]	0.637 µM
